Test results reported in patent publication US9957271B2, “Substituted bicyclic aza-heterocycles and analogues as sirtuin modulators” (GlaxoSmithKline, LLC, priority 2012, dated 2018).

Columns and labels:
SIRT1 [1] = biological target: T1, SIRT1 (Homo sapiens, UniProt Q96EB6); experiment: Trp mass spectrometry assay of SIRT1 activity; type: biochemical; conditions: Trp assay; for Trp EC1.5 (μM): concentration giving 150% activation of SIRT1; for Emax: percent maximum fold activation, read-out: Trp % Fold Act
T1 sequence (Q96EB6 1-747): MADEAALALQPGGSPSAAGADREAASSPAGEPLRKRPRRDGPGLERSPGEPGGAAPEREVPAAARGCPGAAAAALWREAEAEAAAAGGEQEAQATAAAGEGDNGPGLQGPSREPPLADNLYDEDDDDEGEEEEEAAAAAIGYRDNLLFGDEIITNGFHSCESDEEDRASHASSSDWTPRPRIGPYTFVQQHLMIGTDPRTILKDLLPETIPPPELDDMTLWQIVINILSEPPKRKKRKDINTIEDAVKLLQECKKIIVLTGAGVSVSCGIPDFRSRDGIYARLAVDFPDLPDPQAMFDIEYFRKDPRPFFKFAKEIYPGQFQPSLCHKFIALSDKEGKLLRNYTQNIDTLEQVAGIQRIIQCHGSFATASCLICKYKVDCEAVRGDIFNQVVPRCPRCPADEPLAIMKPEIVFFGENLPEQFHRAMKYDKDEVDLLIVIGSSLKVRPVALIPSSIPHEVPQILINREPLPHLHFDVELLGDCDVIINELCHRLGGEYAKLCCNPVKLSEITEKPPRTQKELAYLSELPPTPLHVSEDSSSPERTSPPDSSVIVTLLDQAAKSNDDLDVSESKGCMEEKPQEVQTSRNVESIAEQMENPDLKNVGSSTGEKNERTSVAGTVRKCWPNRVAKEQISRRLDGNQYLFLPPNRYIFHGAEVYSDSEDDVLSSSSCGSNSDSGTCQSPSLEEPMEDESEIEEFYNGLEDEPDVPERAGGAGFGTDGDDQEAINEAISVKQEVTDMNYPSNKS
Procedure, shortened: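 His-tagged SIRT1 expressed in E. coli BL21(DE3), 10 nM, incubated 25 min at 25° C. with 0.5 μM Ac-RHKK(Ac)W-NH2 peptide and 120 μM βNAD+ in 50 mM HEPES pH 7.5, […], 1 mM DTT, 0.05% BSA; formic acid stop. OAADPR or deacetylated peptide measured by mass spectrometry; EC1.5 and percent maximum activation versus DMSO control.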

SIRT1 [2] = biological target: T1, SIRT1; experiment: TAMRA based mass spectrometry assay of SIRT1 activity; type: biochemical; conditions: TAMRA assay; for TAMRA EC1.5 (μM): concentration giving 150% activation of SIRT1; for Emax: percent maximum fold activation, read-out: TAMRA % Fold Act
Procedure, shortened: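 Recombinant N-terminal His-tagged human SIRT1 (10 nM, E. coli) incubated 25 min at 25 °C with 0.5 μM 5TMR-labelled p53-derived acetyl-peptide and 120 μM βNAD+ in Tris-acetate pH 8 buffer with DTT and 0.05% BSA, compound at varying concentrations. Stopped with formic acid; deacetylated peptide or OAADPR measured by mass spectrometry relative to DMSO controls.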

SMILES	Trp EC1.5 (μM) (SIRT1 [1])	Emax (SIRT1 [1]) [%]	TAMRA EC1.5 (μM) (SIRT1 [2])	Emax (SIRT1 [2]) [%]
COCCOc1cc(NC(=O)c2cnc3ccc(-c4ccccc4C(F)(F)F)nn23)ncn1 [Compound 663]	B (EC1.5 1-25 μM)	< 350	A (EC1.5<1 μM)	≥ 350
COc1ccc(NC(=O)c2c(C)nc3ccc(-c4ccccc4C(F)(F)F)nn23)nn1 [Compound 665]	B (EC1.5 1-25 μM)	< 350	A (EC1.5<1 μM)	≥ 350
COc1ccnc(NC(=O)c2c(C)nc3ccc(-c4ccccc4C(F)(F)F)nn23)c1 [Compound 671]	A (EC1.5<1 μM)	≥ 350	A (EC1.5<1 μM)	≥ 350
Cc1nc2ccc(-c3ccccc3C(F)(F)F)nn2c1C(=O)Nc1ccnn1C(C)(C)C [Compound 672]	B (EC1.5 1-25 μM)	< 350	B (EC1.5 1-25 μM)	< 350
CCn1nccc1NC(=O)c1c(C)nc2ccc(-c3ccccc3C(F)(F)F)nn12 [Compound 674]	B (EC1.5 1-25 μM)	≥ 350	B (EC1.5 1-25 μM)	< 350
Cc1nc2ccc(-c3ccccc3C(F)(F)F)nn2c1C(=O)Nc1ccnn1C(C)C [Compound 680]	B (EC1.5 1-25 μM)	≥ 350	B (EC1.5 1-25 μM)	< 350
Cc1ccnnc1NC(=O)c1cnc2c(C)cc(-c3ccccc3C(F)(F)F)nn12 [Compound 681]	B (EC1.5 1-25 μM)	≥ 350	C (EC1.5>25 μM)	< 350
Cc1cccc(-c2ccc3nc(C)c(C(=O)Nc4ccc(C)nn4)n3n2)c1 [Compound 692]	A (EC1.5<1 μM)	< 350	A (EC1.5<1 μM)	< 350
Cc1ccc(NC(=O)c2c(C)nc3ccc(-c4ccccc4C)nn23)nn1 [Compound 694]	B (EC1.5 1-25 μM)	< 350	B (EC1.5 1-25 μM)	≥ 350
Cc1nn2ccc(-c3ccccc3C(F)(F)F)nc2c1C(=O)Nc1cccnn1 [Compound 695]	A (EC1.5<1 μM)	≥ 350	A (EC1.5<1 μM)	≥ 350
O=C(Nc1cnc2ccc(-c3ccccc3C(F)(F)F)nn12)c1cnc(O)cn1 [Compound 704]	B (EC1.5 1-25 μM)	< 350	A (EC1.5<1 μM)	≥ 350
Cc1nc2ccc(-c3ccccc3F)nn2c1C(=O)Nc1cccnn1 [Compound 706]		< 350		< 350
Cc1ccc(NC(=O)c2c(C)nc3ccc(-c4cccc(F)c4)nn23)nn1 [Compound 716]	A (EC1.5<1 μM)	< 350	B (EC1.5 1-25 μM)	< 350
COc1ccc(NC(=O)c2c(C)nc3ccc(-c4cccc(OC(F)(F)F)c4)nn23)nn1 [Compound 718]	C (EC1.5>25 μM)	< 350	A (EC1.5<1 μM)	< 350
Cc1nc2c(C)cc(-c3ccccc3C(F)(F)F)nn2c1C(=O)Nc1ccnc(C(C)C)n1 [Compound 730]	A (EC1.5<1 μM)	≥ 350	A (EC1.5<1 μM)	≥ 350
Cc1nc2c(C)cc(-c3ccccc3C(F)(F)F)nn2c1C(=O)Nc1ccnc(C(C)(C)C)n1 [Compound 731]	A (EC1.5<1 μM)	< 350	A (EC1.5<1 μM)	≥ 350
Cc1ccc(NC(=O)c2c(C)nc3ccc(-c4ccccc4Cl)nn23)nn1 [Compound 742]	C (EC1.5>25 μM)	< 350	A (EC1.5<1 μM)	< 350

More lines, now with the values ahead:

Trp EC1.5 (μM) (SIRT1 [1])	Emax (SIRT1 [1]) [%]	TAMRA EC1.5 (μM) (SIRT1 [2])	Emax (SIRT1 [2]) [%]	SMILES
B (EC1.5 1-25 μM)	< 350	A (EC1.5<1 μM)	≥ 350	Cc1cncc(NC(=O)c2cnn3ccc(-c4ccccc4C(F)(F)F)nc23)n1 [Compound 654]
B (EC1.5 1-25 μM)	< 350	B (EC1.5 1-25 μM)	≥ 350	O=C(Nc1ncc(F)cc1F)c1cnn2ccc(-c3ccccc3C(F)(F)F)nc12 [Compound 656]
B (EC1.5 1-25 μM)	< 350	A (EC1.5<1 μM)	≥ 350	Cc1cc(NC(=O)c2cnn3ccc(-c4ccccc4OC(F)(F)F)nc23)nc(C)n1 [Compound 659]
A (EC1.5<1 μM)	≥ 350	A (EC1.5<1 μM)	≥ 350	Cc1ccnc(NC(=O)c2c(C)nn3ccc(-c4ccccc4C(F)(F)F)nc23)c1 [Compound 683]
A (EC1.5<1 μM)	< 350	A (EC1.5<1 μM)	≥ 350	Cc1nn2ccc(-c3ccccc3C(F)(F)F)nc2c1C(=O)Nc1ccc(F)cn1 [Compound 686]
B (EC1.5 1-25 μM)	< 350	B (EC1.5 1-25 μM)	≥ 350	Cc1cc(C)nc(NC(=O)c2cnn3ccc(-c4ccccc4OC(F)(F)F)nc23)n1 [Compound 688]
A (EC1.5<1 μM)	≥ 350	A (EC1.5<1 μM)	≥ 350	Cc1ccc(NC(=O)c2c(C)nn3ccc(-c4ccccc4C(F)(F)F)nc23)c(C)n1 [Compound 698]
A (EC1.5<1 μM)	≥ 350	B (EC1.5 1-25 μM)	< 350	Cc1cccnc1NC(=O)c1cnn2ccc(-c3ccccc3OC(F)(F)F)nc12 [Compound 701]
A (EC1.5<1 μM)	≥ 350	A (EC1.5<1 μM)	≥ 350	CCOc1cc(NC(=O)c2c(C)nn3ccc(-c4ccccc4C(F)(F)F)nc23)ccn1 [Compound 707]
A (EC1.5<1 μM)	≥ 350	A (EC1.5<1 μM)	≥ 350	Cc1cnc(NC(=O)c2c(C)nn3ccc(-c4ccccc4C(F)(F)F)nc23)cn1 [Compound 710]
B (EC1.5 1-25 μM)	< 350	B (EC1.5 1-25 μM)	≥ 350	Cc1nc(C(=O)Nc2cnn3ccc(-c4ccccc4OC(F)(F)F)nc23)c(C)s1 [Compound 713]
A (EC1.5<1 μM)	≥ 350	B (EC1.5 1-25 μM)	< 350	Cc1cccnc1NC(=O)c1c(C)nn2ccc(-c3ccccc3C(F)(F)F)nc12 [Compound 722, 2-methyl-N-(3-methylpyridin-2-yl)-5-(2-(trifluoromethyl)phenyl)pyrazolo[1,5-a]pyrimidine-3-carboxamide]
B (EC1.5 1-25 μM)	< 350	C (EC1.5>25 μM)	< 350	Cc1cnc(NC(=O)c2cnn3ccc(-c4ccccc4C(F)(F)F)nc23)c(C)n1 [Compound 724]
B (EC1.5 1-25 μM)	< 350	A (EC1.5<1 μM)	≥ 350	Cc1cccc(C(=O)Nc2cnn3ccc(-c4ccccc4OC(F)(F)F)nc23)n1 [Compound 725]
C (EC1.5>25 μM)	< 350	A (EC1.5<1 μM)	≥ 350	CC(C)c1nccc(C(=O)Nc2cnn3ccc(-c4ccccc4OC(F)(F)F)nc23)n1 [Compound 728]
C (EC1.5>25 μM)	< 350	B (EC1.5 1-25 μM)	≥ 350	Cc1cnc(C(=O)Nc2cnn3ccc(-c4ccccc4OC(F)(F)F)nc23)cn1 [Compound 734]
C (EC1.5>25 μM)	< 350	A (EC1.5<1 μM)	≥ 350	Cc1cc(C)nc(C(=O)Nc2cnn3ccc(-c4ccccc4OC(F)(F)F)nc23)n1 [Compound 736]
A (EC1.5<1 μM)	≥ 350	A (EC1.5<1 μM)	≥ 350	Cc1cncc(NC(=O)c2c(C)nn3ccc(-c4ccccc4C(F)(F)F)nc23)n1 [Compound 737]
